What was measured:
[1] = DRUGMATRIX: Platelet-Derived Growth Factor (PDGF) radioligand binding (ligand: [125I] PDGF); type: cell-based; details: nih3t3; Not Active = under 50% inhibition at 10 µM
Substance-K receptor = target: T1, Substance-K receptor (Homo sapiens, UniProt P21452); type: cell membranes, CHO, Membrane; details: cho; note: in other assays of this panel Not Active means under 50% inhibition at 10 µM
T1 sequence (P21452 whole entry): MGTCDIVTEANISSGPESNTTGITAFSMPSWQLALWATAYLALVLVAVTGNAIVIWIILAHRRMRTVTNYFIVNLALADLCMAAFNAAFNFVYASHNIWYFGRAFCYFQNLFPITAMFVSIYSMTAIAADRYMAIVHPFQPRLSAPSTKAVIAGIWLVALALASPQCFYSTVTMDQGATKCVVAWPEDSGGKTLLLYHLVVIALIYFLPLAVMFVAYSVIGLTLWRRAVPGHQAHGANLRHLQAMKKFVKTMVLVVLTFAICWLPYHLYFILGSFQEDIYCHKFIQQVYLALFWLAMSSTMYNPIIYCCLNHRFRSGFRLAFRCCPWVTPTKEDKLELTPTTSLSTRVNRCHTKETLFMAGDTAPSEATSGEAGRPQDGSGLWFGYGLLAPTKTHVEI

[2] = target: T2, Muscarinic acetylcholine receptor M5 (Homo sapiens, UniProt P08912); type: cell membranes, Membrane; details: cho-k1; note: in other assays of this panel Not Active means under 50% inhibition at 10 µM
T2 sequence (P08912 whole entry): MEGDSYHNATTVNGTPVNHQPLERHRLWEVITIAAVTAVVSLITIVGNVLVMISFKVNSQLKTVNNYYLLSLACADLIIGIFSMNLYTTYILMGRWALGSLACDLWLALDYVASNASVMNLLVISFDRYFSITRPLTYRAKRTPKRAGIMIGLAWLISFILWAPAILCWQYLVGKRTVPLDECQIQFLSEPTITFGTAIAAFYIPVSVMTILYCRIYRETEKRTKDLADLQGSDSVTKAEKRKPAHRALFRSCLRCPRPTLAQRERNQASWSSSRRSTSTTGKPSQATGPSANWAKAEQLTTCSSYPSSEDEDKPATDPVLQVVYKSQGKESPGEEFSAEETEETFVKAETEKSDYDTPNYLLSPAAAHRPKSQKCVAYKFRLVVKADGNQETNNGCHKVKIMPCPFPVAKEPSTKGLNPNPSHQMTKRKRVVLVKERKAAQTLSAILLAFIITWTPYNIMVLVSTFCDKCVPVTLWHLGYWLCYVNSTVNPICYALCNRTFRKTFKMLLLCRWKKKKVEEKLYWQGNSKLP

[3] = target: T3, 5-hydroxytryptamine receptor 1A (Rattus norvegicus, UniProt P19327); type: cell membranes, CHO-K1, Membrane; details: cho-k1; note: in other assays of this panel Not Active means under 50% inhibition at 10 µM
T3 sequence (P19327 whole entry): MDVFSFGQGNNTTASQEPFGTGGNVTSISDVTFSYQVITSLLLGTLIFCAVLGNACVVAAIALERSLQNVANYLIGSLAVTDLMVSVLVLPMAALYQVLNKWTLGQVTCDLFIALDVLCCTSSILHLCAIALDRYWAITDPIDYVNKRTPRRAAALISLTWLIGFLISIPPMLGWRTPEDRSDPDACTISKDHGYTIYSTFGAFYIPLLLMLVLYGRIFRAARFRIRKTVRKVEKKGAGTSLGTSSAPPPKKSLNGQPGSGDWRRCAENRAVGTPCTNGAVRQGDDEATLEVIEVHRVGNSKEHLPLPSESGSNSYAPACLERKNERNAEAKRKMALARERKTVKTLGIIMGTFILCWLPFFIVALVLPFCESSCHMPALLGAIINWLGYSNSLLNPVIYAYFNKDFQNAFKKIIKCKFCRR

Cytochrome P450 3A4 = Cytochrome P450 3A4 (Homo sapiens, UniProt P08684); details: bti-tn-5b1-4; note: in other assays of this panel Not Active means under 50% inhibition at 10 µM
[4] = target: Tyrosine-protein kinase Fyn (Homo sapiens, UniProt P06241); test: biochemical; type: cell-based, Insect cells; details: insect cells
[5] = target: C-C chemokine receptor type 5 (Homo sapiens, UniProt P51681); type: cell membranes, Membrane; details: hek293; note: in other assays of this panel Not Active means under 50% inhibition at 10 µM
Chain of C-C chemokine receptor type 5 (P51681 whole entry): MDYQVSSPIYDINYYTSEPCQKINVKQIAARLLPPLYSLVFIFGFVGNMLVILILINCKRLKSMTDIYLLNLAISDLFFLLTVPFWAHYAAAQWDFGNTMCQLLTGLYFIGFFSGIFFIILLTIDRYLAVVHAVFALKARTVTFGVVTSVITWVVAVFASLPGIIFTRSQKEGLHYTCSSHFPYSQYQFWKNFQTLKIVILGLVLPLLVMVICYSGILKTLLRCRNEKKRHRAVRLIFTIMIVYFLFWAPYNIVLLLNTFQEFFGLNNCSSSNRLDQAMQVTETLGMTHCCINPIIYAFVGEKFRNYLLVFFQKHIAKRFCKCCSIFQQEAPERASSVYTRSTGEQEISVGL

Chain of Tyrosine-protein kinase Fyn (P06241 whole entry): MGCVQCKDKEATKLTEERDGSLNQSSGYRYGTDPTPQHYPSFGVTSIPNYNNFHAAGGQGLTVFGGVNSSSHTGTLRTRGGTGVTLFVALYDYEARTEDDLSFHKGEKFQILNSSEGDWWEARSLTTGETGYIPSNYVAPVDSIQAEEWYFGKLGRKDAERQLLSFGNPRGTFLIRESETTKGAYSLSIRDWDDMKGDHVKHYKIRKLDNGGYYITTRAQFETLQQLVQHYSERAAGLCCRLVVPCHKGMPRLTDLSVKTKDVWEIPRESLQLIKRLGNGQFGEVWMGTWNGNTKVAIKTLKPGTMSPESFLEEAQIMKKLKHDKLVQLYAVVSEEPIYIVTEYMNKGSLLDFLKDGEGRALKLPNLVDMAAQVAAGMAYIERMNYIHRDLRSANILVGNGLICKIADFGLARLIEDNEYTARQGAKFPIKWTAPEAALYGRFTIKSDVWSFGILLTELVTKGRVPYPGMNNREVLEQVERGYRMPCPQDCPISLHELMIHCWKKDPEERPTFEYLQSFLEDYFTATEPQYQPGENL
Chain of Cytochrome P450 3A4 (P08684 whole entry): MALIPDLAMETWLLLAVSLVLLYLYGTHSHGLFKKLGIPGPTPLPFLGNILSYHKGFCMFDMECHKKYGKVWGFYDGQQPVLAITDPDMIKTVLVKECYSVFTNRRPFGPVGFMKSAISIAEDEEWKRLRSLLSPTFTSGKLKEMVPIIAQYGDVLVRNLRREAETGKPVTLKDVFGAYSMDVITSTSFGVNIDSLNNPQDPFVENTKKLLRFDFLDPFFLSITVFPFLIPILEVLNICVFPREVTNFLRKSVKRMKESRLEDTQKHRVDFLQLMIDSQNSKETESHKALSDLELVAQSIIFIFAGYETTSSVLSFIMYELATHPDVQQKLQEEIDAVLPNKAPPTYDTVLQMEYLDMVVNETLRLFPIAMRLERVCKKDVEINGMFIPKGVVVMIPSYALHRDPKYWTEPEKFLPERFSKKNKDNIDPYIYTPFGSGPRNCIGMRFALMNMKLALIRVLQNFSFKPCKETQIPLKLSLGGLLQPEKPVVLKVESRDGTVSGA

CC(C)(CO)C(O)C(=O)NCCCO (stereo unspecified) [PANTHENOL]
Not Active: IC50 [1] | Ki [1] | IC50 (Substance-K receptor) | IC50 [2] | IC50 [3] | IC50 (Cytochrome P450 3A4) | Ki (Cytochrome P450 3A4) | IC50 [4] | IC50 [5]

COc1ccc(Cc2nccc3cc(OC)c(OC)cc23)cc1OC [PAPAVERINE]
Not Active: IC50 [1] | Ki [1] | IC50 (Substance-K receptor) | IC50 [2] | IC50 [3] | IC50 (Cytochrome P450 3A4) | Ki (Cytochrome P450 3A4) | IC50 [4] | IC50 [5]

CCCCC1C(=O)N(c2ccccc2)N(c2ccccc2)C1=O [PHENYLBUTAZONE]
Not Active: IC50 [1] | Ki [1] | IC50 (Substance-K receptor) | IC50 [2] | IC50 [3] | IC50 (Cytochrome P450 3A4) | Ki (Cytochrome P450 3A4) | IC50 [4] | IC50 [5]

Cc1cccc(Nc2cc(Cl)nc(SCC(=O)O)n2)c1C [PIRINIXIC ACID]
Not Active: IC50 [1] | Ki [1] | IC50 (Substance-K receptor) | IC50 [2] | IC50 [3] | IC50 (Cytochrome P450 3A4) | Ki (Cytochrome P450 3A4) | IC50 [4] | IC50 [5]

CC[C@H](C)C(=O)O[C@H]1C[C@H](O)C=C2C=C[C@H](C)[C@H](CC[C@@H](O)C[C@@H](O)CC(=O)O)[C@H]21 [PRAVASTATIN]
Not Active: IC50 [1] | Ki [1] | IC50 (Substance-K receptor) | IC50 [2] | IC50 [3] | IC50 (Cytochrome P450 3A4) | Ki (Cytochrome P450 3A4) | IC50 [4] | IC50 [5]

CC(C)(Sc1cc(C(C)(C)C)c(O)c(C(C)(C)C)c1)Sc1cc(C(C)(C)C)c(O)c(C(C)(C)C)c1 [PROBUCOL]
Not Active: IC50 [1] | Ki [1] | IC50 (Substance-K receptor) | IC50 [2] | IC50 [3] | IC50 (Cytochrome P450 3A4) | Ki (Cytochrome P450 3A4) | IC50 [4] | IC50 [5]

COBALT(II) ACETYLACETONATE
Not Active: IC50 [1] | Ki [1] | IC50 (Substance-K receptor) | Ki (Substance-K receptor) | IC50 [2] | Ki [2] | IC50 [3] | Ki [3] | IC50 (Cytochrome P450 3A4) | Ki (Cytochrome P450 3A4) | IC50 [4] | Ki [4] | IC50 [5] | Ki [5]

INSULIN HUMAN
Not Active: IC50 [1] | Ki [1] | IC50 (Substance-K receptor) | Ki (Substance-K receptor) | IC50 [2] | Ki [2] | IC50 [3] | Ki [3] | IC50 (Cytochrome P450 3A4) | Ki (Cytochrome P450 3A4) | IC50 [4] | Ki [4] | IC50 [5] | Ki [5]

POLYVINYL ALCOHOL
Not Active: IC50 [1] | Ki [1] | IC50 (Substance-K receptor) | Ki (Substance-K receptor) | IC50 [2] | Ki [2] | IC50 [3] | Ki [3] | IC50 (Cytochrome P450 3A4) | Ki (Cytochrome P450 3A4) | IC50 [4] | Ki [4] | IC50 [5] | Ki [5]
